# Data taken from publication PMC3943433 (Journal of medicinal chemistry, 2013).
# Like-named read-outs stand apart in the source and are kept apart here.
# Key:
# [1] = biological target: T1, SHV-1 β-lactamase (Klebsiella pneumoniae, UniProt P0AD64); type: biochemical
# [2] = biological target: T2, SHV K234R β-lactamase (Klebsiella pneumoniae, UniProt P0AD64, K230R); test: Ki by direct competition assay with nitrocefin; type: biochemical; conditions: for fold lower Ki for K234R relative to SHV-1: K234R vs SHV-1
# [3] = biological target: T2, SHV K234R β-lactamase; test: Steady-state kinetics with β-lactam substrates; type: biochemical; conditions: K234R relative to SHV-1, from kcat/Km (eq 3)
# [4] = test system: E. coli DH10B expressing blaSHV K234X (other 16 amino acid substitutions); test: MIC by Mueller-Hinton agar dilution; type: cell-based; conditions: Escherichia coli, E. coli blaSHV K234X (other 16 substitutions); β-lactam alone
# [5] = test system: CCN1CCN(C(=O)N[C@@H](C(=O)N[C@@H]2C(=O)N3[C@@H]2SC(C)(C)[C@@H]3C(=O)O)c2ccccc2)C(=O)C1=O; test: Steady-state kinetics with β-lactam substrates; type: biochemical, Klebsiella pneumoniae; conditions: other: SHV-1, substrate, 10 mM PBS pH 7.4, room temperature
# [6] = test system: O=C(Cc1cccs1)N[C@@H]1C(=O)N2C(C(=O)O)=C(/C=C/c3ccc([N+](=O)[O-])cc3[N+](=O)[O-])CS[C@H]12; test: Steady-state kinetics with β-lactam substrates; type: biochemical, Klebsiella pneumoniae; conditions: other: SHV-1, substrate, 10 mM PBS pH 7.4, room temperature
# [7] = test system: CC(=O)OCC1=C(C(=O)O)N2C(=O)[C@@H](NC(=O)Cc3cccs3)[C@H]2SC1; test: Steady-state kinetics with β-lactam substrates; type: biochemical, Klebsiella pneumoniae; conditions: other: SHV-1, substrate, 10 mM PBS pH 7.4, room temperature
# [8] = test system: E. coli DH10B expressing blaSHV-1; test: MIC by Mueller-Hinton agar dilution; type: cell-based; conditions: E. coli blaSHV-1; inhibitor in the presence of 50 µg/mL ampicillin
# [9] = test system: E. coli DH10B expressing blaSHV K234R; type: cell-based; conditions: inhibitor in the presence of 50 µg/mL ampicillin
# [10] = test system: E. coli DH10B; type: cell-based; conditions: inhibitor in the presence of 50 µg/mL ampicillin
# [11] = test system: E. coli DH10B expressing blaSHV K234A; type: cell-based; conditions: inhibitor in the presence of 50 µg/mL ampicillin
# [12] = biological target: T1, SHV-1 β-lactamase
# [13] = biological target: T2, SHV K234R β-lactamase; test: Far-UV circular dichroism and thermal denaturation in the presence of inhibitors; conditions: for effect on secondary structure (far UV CD): K234R 10 µM, 50 µM inhibitor; for ΔHVH: K234R 10 µM with 50 µM inhibitor, van't Hoff plot
# [14] = SHV-1 10 µM with 50 µM inhibitor, van't Hoff plot
molecule,measurement,setting,value
O=C(Cc1cccs1)N[C@@H](Cc1cccc(C(=O)O)c1)B(O)O [Chiral Cephalothin BATSI],fold lower Ki than the achiral BATSI,[1],44 fold
same,"fold difference in Ki, achiral vs chiral cephalothin BATSI",[2]; K234R,5000 fold
same,fold lower Ki for K234R relative to SHV-1,[2],38 fold
"O=C(Cc1cccs1)N[C@@H]1C(=O)N2C(C(=O)O)=C(/C=C/c3ccc([N+](=O)[O-])cc3[N+](=O)[O-])CS[C@H]12 [Nitrocefin, nitrocefin]",ΔΔGcat,[3],+0.70 kcal/mol
"CC1(C)S[C@@H]2[C@H](NC(=O)[C@H](N)c3ccccc3)C(=O)N2[C@H]1C(=O)O [amp, ampicillin]",MIC,[4],≤ 4 µg/mL
SHV-1 β-lactamase (Klebsiella pneumoniae),Km,[5],74.6 ± 11.7 µM
same,kcat,[5],1180 ± 65 s⁻¹
same,kcat/Km,[5],1.58e+07 ± 600000 M⁻¹ s⁻¹
same,Km,[6],24.7 ± 5 µM
same,kcat,[6],348 ± 21.5 s⁻¹
same,kcat/Km,[6],1.41e+07 ± 220000 M⁻¹ s⁻¹
same,Km,[7],48.9 ± 11.2 µM
same,kcat,[7],42.6 ± 3.4 s⁻¹
same,kcat/Km,[7],870000 ± 300000 M⁻¹ s⁻¹
ampicillin/tazobactam [amp/ tazo],MIC,[8],128 µg/mL
same,MIC,[9],16 µg/mL
same,MIC,[10],<0.06 µg/mL
same,MIC,[11],<0.06 µg/mL
"CC1(C)[C@H](C(=O)O)N2C(=O)C[C@H]2S1(=O)=O [Sulbactam, sulbactam]",effect on secondary structure (far UV CD),[12],not SHV-1
same,ΔHVH,[12],183 kcal/mol
same,ΔΔGu,[12],+0.07 kcal/mol
same,effect on secondary structure (far UV CD),[13],affect the secondary structure
N[C@@H](C(=O)N[C@@H](Cc1cccc(C(=O)O)c1)B(O)O)c1ccccc1 [Chiral Ampicillin BATSI],fold lower Ki for K234R relative to SHV-1,[2],23 fold
same,ΔHVH,[12]; [14],143 kcal/mol
same,ΔHVH,[13],119 kcal/mol
same,increase of melting temperature,[13]; K234R with inhibitor vs apo,6.6 °C
O=C(Cc1cccs1)NCB(O)O [Achiral Cephalothin BATSI],ΔHVH,[12]; [14],160 kcal/mol
same,ΔHVH,[13],100 kcal/mol
same,effect on secondary structure (far UV CD),[13],affect the secondary structure
"C[C@]1(Cn2ccnn2)[C@H](C(=O)O)N2C(=O)C[C@H]2S1(=O)=O [Tazobactam, tazobactam]",ΔHVH,[12]; [14],149 kcal/mol
same,effect on secondary structure (far UV CD),"[12]; SHV-1 10 µM, 50 µM inhibitor",not SHV-1
same,ΔHVH,[13],114 kcal/mol
same,effect on secondary structure (far UV CD),[13],affect the secondary structure
ampicillin/clavulanate [amp/ clav],MIC,[8],4 µg/mL
same,MIC,[9],16 µg/mL
same,MIC,[10],<0.06 µg/mL
same,MIC,[11],<0.06 µg/mL
"CC(=O)OCC1=C(C(=O)O)N2C(=O)[C@@H](NC(=O)Cc3cccs3)[C@H]2SC1 [thin, cephalothin]",ΔΔGcat,[3],+1.00 kcal/mol
"CCN1CCN(C(=O)N[C@@H](C(=O)N[C@@H]2C(=O)N3[C@@H]2SC(C)(C)[C@@H]3C(=O)O)c2ccccc2)C(=O)C1=O [pip, piperacillin]",MIC,[4],≤ 8 µg/mL
same,ΔΔGcat,[3],+0.33 kcal/mol
ampicillin/sulbactam [amp/ sul],MIC,[8],512 µg/mL
same,MIC,[9],64 µg/mL
same,MIC,[10],<0.06 µg/mL
same,MIC,[11],<0.06 µg/mL
"O=C(O)[C@H]1/C(=C/CO)O[C@@H]2CC(=O)N21 [Clavulanate, clavulanate]",effect on secondary structure (far UV CD),[12],affects the secondary structure of both enzymes
same,ΔHVH,[12],113 kcal/mol
same,ΔΔGu,[12],+0.28 kcal/mol
same,ΔHVH,[13],68 kcal/mol
same,effect on secondary structure (far UV CD),[13],affects the secondary structure of both enzymes
